{
  "source": "paper PMC10746189",
  "about": "“Campylobacter jejuni uses energy taxis and a dehydrogenase enzyme for L-fucose chemotaxis” (mBio, 2023)",
  "biological_target": "T1, FucX (Campylobacter jejuni, UniProt Q0PB28)",
  "T1 construct": "gene Cj0485; His-tagged FucX from pET30a(+)-fucX, expressed in E. coli BL21, Ni-NTA purified, desalted",
  "T1 sequence (Q0PB28 entry or part of it)": "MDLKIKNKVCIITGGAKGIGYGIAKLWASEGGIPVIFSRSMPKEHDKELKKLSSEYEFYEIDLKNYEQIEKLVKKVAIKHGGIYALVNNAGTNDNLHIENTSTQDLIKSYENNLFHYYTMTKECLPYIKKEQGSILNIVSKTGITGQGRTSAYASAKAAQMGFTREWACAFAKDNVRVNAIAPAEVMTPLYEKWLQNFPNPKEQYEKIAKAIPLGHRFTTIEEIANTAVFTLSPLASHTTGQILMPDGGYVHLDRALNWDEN",
  "assay": "dehydrogenase assay, NADPH absorbance at […] nm",
  "assay_type": "biochemical",
  "conditions": "5 nM protein; 1 mM L-fucose; 100 µM NADP+; 1 mM MgCl2; 50 mM Tris-HCl pH 7.5; room temperature",
  "data": [
    {"smiles": "C[C@@H]1OC(O)[C@@H](O)[C@H](O)[C@@H]1O", "note": "(stereo partly drawn) [L-fucose]", "values": [
      {"measurement": "dehydrogenase assay, NADPH absorbance at 340 nm", "result": "L-Fucose dehydrogenase activity of indicated FucX pure proteins: (+), with L-fucose; (−), no L-fucose."}
    ]}
  ]
}
